From patent US20230382984A1, “TRABD PROTEIN, AND MONOCLONAL ANTIBODY THEREOF, AND ISOLATION, AMPLIFICATION AND USE THEREOF” (priority 2022, published 2023)

Columns and labels:
[1] = tested on: TRABD protease; conditions: cited from earlier work; for function of TRABD protein: divalent metal ion complexing agent; for TRABD protease activity: early study, metal ions
[2] = molecular target: T1, TRABD2A protein (Homo sapiens, UniProt Q86V40); conditions: different view; metal ions; cited from earlier work
T1 sequence (Q86V40 22-480): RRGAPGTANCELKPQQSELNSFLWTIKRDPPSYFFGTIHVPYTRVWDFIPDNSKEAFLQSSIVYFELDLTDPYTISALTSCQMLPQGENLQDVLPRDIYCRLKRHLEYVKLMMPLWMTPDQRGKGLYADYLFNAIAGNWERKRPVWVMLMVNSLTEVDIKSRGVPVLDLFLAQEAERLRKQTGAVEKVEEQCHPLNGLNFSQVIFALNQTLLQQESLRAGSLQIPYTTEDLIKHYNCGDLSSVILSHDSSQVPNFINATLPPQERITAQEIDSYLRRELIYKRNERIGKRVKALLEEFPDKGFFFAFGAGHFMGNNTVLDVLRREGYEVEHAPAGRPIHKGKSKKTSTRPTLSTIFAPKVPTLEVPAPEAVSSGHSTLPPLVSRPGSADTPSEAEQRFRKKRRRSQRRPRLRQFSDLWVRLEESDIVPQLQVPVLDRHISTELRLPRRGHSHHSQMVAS

[3] = molecular target: T2, TRABD2A metalloprotease on CD8^+ T cells (Homo sapiens, UniProt Q86V40); experiment: Killing activity of CD8+ T cells on target cells after metal cofactor intervention of TRABD2A; type: cell-based; conditions: metal cations at different concentrations acting on CD8+ T cells; target cells CEM.T2 and MGC; FIG. 4A
T2 construct: action of metal ions Mn^2+, Co^2+ and Ni^2+ on TRABD2A metalloprotease on CD8^+ T cells; endogenous in cells
T2 sequence (Q86V40 22-480): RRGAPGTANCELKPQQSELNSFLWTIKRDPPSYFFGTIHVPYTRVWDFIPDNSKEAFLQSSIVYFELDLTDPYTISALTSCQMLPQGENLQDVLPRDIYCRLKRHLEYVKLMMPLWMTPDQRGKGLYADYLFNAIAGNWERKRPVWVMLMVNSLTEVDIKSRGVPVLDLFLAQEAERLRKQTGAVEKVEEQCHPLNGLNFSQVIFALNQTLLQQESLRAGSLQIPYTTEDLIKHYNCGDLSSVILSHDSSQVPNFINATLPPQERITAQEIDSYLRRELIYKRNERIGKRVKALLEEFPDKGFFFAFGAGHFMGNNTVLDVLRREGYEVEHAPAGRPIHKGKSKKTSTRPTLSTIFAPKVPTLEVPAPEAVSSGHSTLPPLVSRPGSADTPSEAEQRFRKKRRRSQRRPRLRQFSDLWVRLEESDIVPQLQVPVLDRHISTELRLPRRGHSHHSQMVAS
Excerpt: Since TRABD2A is a metalloprotease and its activity is affected by metal ions, and the metal ion Mn^2+ having an accelerating effect on TRABD2A metalloprotease activity and metal ions Co^2+ and Ni^2+ having an inhibiting effect were examined. The effect of the TRABD2A protein on CD8^+ T cells was observed by the action of metal ions Mn^2+, Co^2+ and Ni^2+ on TRABD2A metalloprotease on CD8^+ T cells.

[4] = tested on: CD8^+ T cells and target cells; experiment: CCK8 and flow cytometry detection of toxic effect of metal cations; conditions: concentration of 20 μM
Excerpt: FIG. 4A show the effect on the target cell killing ability of CD8^+ T cells after metal cofactor intervention of TRABD2A; • A: detection of the killing activity of the CD8^+ T cells on target cells CEM.T2 when metal cations Co^2+, Ni^2+ and Mn^2+ at different concentrations act on CD8^+ T cells; • B: detection of the killing activity of the CD8^+ T cells on target cells MGC when metal cations Co^2+, Ni^2+ and Mn^2+ at different concentrations act on CD8^+ T cells; • C: CCK8 and flow cytometry detection of the toxic effect of metal cations Co^2+, Ni^2+ and Mn^2+ at different concentrations on target cells.

Structure (SMILES)	function of TRABD protein [1]	activity of the TRABD2A protein [2]	TRABD protease activity [1]	also measured
c1cnc2c(c1)ccc1cccnc12 [1,10-phenanthroline]	inhibited	–	–	–
[Ca+2] [Ca^2+]	–	independent	–	–
[Co+2] [Co^2+]	–	inhibited	increase	tumor killing ability of CD8^+ T cells [3]: enhanced; toxic effect on CD8^+ T cells and target cells [4]: little toxic effect
[Cu+2] [Cu^2+]	–	–	opposite effect	–
O=C(O)CN(CCN(CC(=O)O)CC(=O)O)CC(=O)O [EDTA]	inhibited	–	–	–
[Fe+3] [Fe^3+]	–	independent	–	–
